# Source: patent US9718790B2, “Triazine derivative and pharmaceutical composition having an analgesic activity comprising the same” (SHIONOGI & CO., LTD., priority 2010, dated 2017)
# Biological target: human P2X3 receptor (Homo sapiens (Human), UniProt P56373)
# Experiment: Evaluation of human P2X3 receptor inhibitory activity (Fluo-3 calcium fluorescence, FDSS 3000, ATP stimulation);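 also: stimulus was 50 nM ATP with fluorescence followed for 3 min, and the response per well was peak post-ATP fluorescence divided by the reading at measurement start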
# Assay type: cell-based
# Details: C6BU-1 cells stably expressing human P2X3 receptor
# Chain of human P2X3 receptor (P56373 whole entry): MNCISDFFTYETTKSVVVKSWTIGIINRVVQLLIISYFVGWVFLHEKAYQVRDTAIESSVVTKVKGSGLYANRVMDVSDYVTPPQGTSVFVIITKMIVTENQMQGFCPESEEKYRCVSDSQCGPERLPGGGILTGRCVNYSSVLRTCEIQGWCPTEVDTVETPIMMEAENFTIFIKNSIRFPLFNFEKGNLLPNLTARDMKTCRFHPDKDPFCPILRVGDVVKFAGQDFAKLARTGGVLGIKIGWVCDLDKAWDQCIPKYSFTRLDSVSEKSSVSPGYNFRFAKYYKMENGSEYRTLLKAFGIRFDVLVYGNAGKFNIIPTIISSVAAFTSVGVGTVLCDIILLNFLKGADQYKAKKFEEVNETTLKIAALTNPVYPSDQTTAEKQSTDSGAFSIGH
row,Compound,IC50
1,COC(=O)CCCn1c(=O)[nH]/c(=N\c2ccc(Oc3ccncc3)cc2)n(Cc2ccc(Cl)cc2)c1=O [Compound I-1245],3 nM
2,C[C@@H](C(=O)O)[C@H](C)n1c(=O)[nH]/c(=N\c2ccc(N3CCCCC3)cc2)n(Cc2ccc(Cl)cc2)c1=O [Compound I-1393],35 nM
3,CCn1c(=O)[nH]/c(=N\c2ccc(Oc3ccccc3C(=O)OC)cc2)n(Cc2ccc(Cl)cc2)c1=O [Compound I-1988],391 nM
4,O=c1[nH]c(=O)n(Cc2ccc(Cl)cc2)/c(=N/c2ccc(Oc3ccnc(CO)c3)cc2)[nH]1 [Compound I-1962],65 nM
5,CC(C)Oc1ccc(/N=c2\[nH]c(=O)n(CC(=O)OCC3CCOCC3)c(=O)n2Cc2ccc(Cl)cc2)cc1Cl [Compound I-0667],20 nM
6,CC(C)Cc1ccc(/N=c2\[nH]c(=O)n(C[C@H](C)C(=O)O)c(=O)n2Cc2ccc(Cl)cc2)cc1Cl [Compound I-1372],5 nM
7,C[C@@H](Cn1c(=O)[nH]/c(=N\c2ccc(OCCO)cc2)n(Cc2ccc(Cl)cc2)c1=O)C(=O)O [Compound I-0733],287 nM
8,Cc1ccc(Cn2c(=O)n([C@@H](C)[C@@H](C)C(=O)O)c(=O)[nH]/c2=N\c2ccc(OC(C)C)c(Br)c2)cc1 [Compound I-1334],11 nM
9,COC(=O)[C@H](C)[C@H](C)n1c(=O)[nH]/c(=N\c2ccc(OC3CCC3)c(C)c2)n(Cc2ccc(C)cc2)c1=O [Compound I-1402],33 nM
10,"CCOC(=O)/C(Cn1c(=O)[nH]/c(=N\c2ccc(OC(C)C)c(F)c2)n(Cc2ccc(Cl)cc2)c1=O)=N/OC [Compound I-0735, 1-(4-chlorobenzyl)-6-(3-fluoro-4-isopropoxyphenylimino)-3-(2-ethoxycarbonyl-2-methoxyiminoethyl)-1,3,5-triazinane-2,4-dion]",7 nM
11,O=C(O)Cn1c(=O)[nH]/c(=N\c2ccc(Oc3ccnc(O)c3)cc2)n(Cc2ccc(Cl)cc2)c1=O [Compound I-1932],95 nM
12,CC(C)Oc1ccc(/N=c2\[nH]c(=O)n(CCN(CCO)C(=O)OC(C)(C)C)c(=O)n2Cc2ccc(Cl)cc2)cc1F [Compound I-2109],11 nM
13,CCn1c(=O)[nH]/c(=N\c2ccc(Oc3cncc(OC)n3)cc2)n(Cc2ccc(Cl)cc2)c1=O [Compound I-2125],7 nM
14,CCn1c(=O)[nH]/c(=N\c2ccc(-n3cc(C(=O)OC)ccc3=O)cc2)n(Cc2ccc(Cl)cc2)c1=O [Compound I-2033],622 nM
15,CCn1c(=O)[nH]/c(=N\c2ccc(Oc3ccc(C(=O)O)cc3)cc2)n(Cc2ccc(C)cc2)c1=O [Compound I-2035],22 nM
16,Cc1ccc(Cn2c(=O)n(CCC(=O)O)c(=O)[nH]/c2=N\c2ccc(OC3CCC3)c(Cl)c2)cc1 [Compound I-1332],54 nM

row,Compound,IC50
1,CCn1c(=O)[nH]/c(=N\c2ccc(Oc3cccc(NC(C)=O)c3)cc2)n(Cc2ccc(Cl)cc2)c1=O [Compound I-2139],22 nM
2,Cc1ccc(Cn2c(=O)n(CC(C)(C)C(=O)O)c(=O)[nH]/c2=N\c2cccc(C(F)(F)F)c2)cc1 [Compound I-1271],32 nM
3,CCn1c(=O)[nH]/c(=N\c2ccc(Oc3ccc(F)c(C(=O)O)c3)cc2)n(Cc2ccc(Cl)cc2)c1=O [Compound I-2066],23 nM
4,Cc1ccc(Cn2c(=O)n([C@@H](C)[C@@H](C)C(=O)O)c(=O)[nH]/c2=N\c2ccc3oc(C)cc3c2)cc1 [Compound I-1353],41 nM
5,Cc1ccc(Cn2c(=O)n(C[C@H](C)C(=O)O)c(=O)[nH]/c2=N\c2ccc3nc(C)oc3c2)cc1 [Compound I-1279],158 nM
6,CCn1c(=O)[nH]/c(=N\c2ccc(Oc3ccc(C(=O)O)nc3)cc2)n(Cc2ccc(C)cc2)c1=O [Compound I-2116],15 nM
7,Cc1ccc(Cn2c(=O)n(CCC(=O)O)c(=O)[nH]/c2=N\c2ccc(Oc3ccc(C)nc3)cc2)cc1 [Compound I-1356],48 nM
8,CCCc1ccc(/N=c2\[nH]c(=O)n(C[C@H](C)C(=O)OC)c(=O)n2Cc2ccc(Cl)cc2)cc1 [Compound I-0621],58 nM
9,Cc1ccc(Cn2c(=O)[nH]c(=O)[nH]/c2=N\c2ccc(Oc3ccnc(C(=O)O)c3)cc2)cc1 [Compound I-2140],7 nM
10,Cc1ccc(Cn2c(=O)n(C[C@H](C)C(=O)O)c(=O)[nH]/c2=N\c2ccc(/C=C/C3CC3)cc2)cc1 [Compound I-1200],45 nM
11,CCOC(=O)CCn1c(=O)[nH]/c(=N\c2ccc3nc(C)sc3c2)n(CC2CCC(C)CC2)c1=O (stereo not drawn) [Compound I-1990],2 nM
12,"CC(C)Oc1ccc(/N=c2\[nH]c(=O)n(C[C@H](O)CO)c(=O)n2Cc2ccc(Cl)cc2)cc1Cl [Compound I-0638, (R)-1-(4-chlorobenzyl)6-(3-chloro-4-isopropoxyphenylamino)-3-(2,3-dihydroxypropyl)-1,3,5-triazinane-2,4-dion]",6 nM
13,CC(C)Cc1ccc(/N=c2\[nH]c(=O)n(C[C@H](C)C(=O)O)c(=O)n2Cc2ccc(Cl)cc2)cc1F [Compound I-1257],9 nM
14,COC(=O)[C@@H](C)Cn1c(=O)[nH]/c(=N\c2ccc(Br)c(OC)c2)n(Cc2ccc(C)cc2)c1=O [Compound I-1195],221 nM
15,COC(=O)[C@@H](C)Cn1c(=O)[nH]/c(=N\c2ccc(OC(C)C)c(Cl)c2)n(Cc2ccc(C)cc2)c1=O [Compound I-0593],4 nM
16,CCn1c(=O)[nH]/c(=N\c2ccc(Oc3ccsc3C(=O)OC)cc2)n(Cc2ccc(Cl)cc2)c1=O [Compound I-2037],340 nM

# Same assay, conditions: C6BU-1 cells stably expressing human P2X3 receptor, Fluo-3 fluorescence, FDSS 3000
row,Compound,IC50
1,COC(=O)[C@@H](C)Cn1c(=O)[nH]/c(=N\c2ccc(C=C(C)C)c(C)c2)n(Cc2ccc(Cl)cc2)c1=O [Compound I-0948],19 nM
2,C[C@@H](C(=O)O)[C@H](C)n1c(=O)[nH]/c(=N\c2ccc3c(c2)CCCC3)n(Cc2ccc(Cl)cc2)c1=O [Compound I-1796],587 nM
3,C[C@@H](C(=O)O)[C@H](C)n1c(=O)[nH]/c(=N\c2ccc(OCC3CC3)cc2)n(Cc2ccc(Cl)cc2)c1=O [Compound I-0921],30 nM
4,C=Cc1ccc(Cn2c(=O)n(C[C@H](C)C(=O)O)c(=O)[nH]/c2=N\c2ccc(OC(C)C)cc2)cc1 [Compound I-1139],52 nM
5,CC(C)Oc1ccc(/N=c2\[nH]c(=O)n(CC3(C(=O)O)CC3)c(=O)n2Cc2ccc(Cl)cc2)cc1 [Compound I-0988],93 nM
6,CC[C@@H](C)Oc1ccc(/N=c2\[nH]c(=O)n(CCC(=O)O)c(=O)n2Cc2ccc(C)cc2)cc1 [Compound I-1028],78 nM
7,CCc1oc2ccc(/N=c3\[nH]c(=O)n(CC(=O)NC)c(=O)n3Cc3ccc(Cl)cc3)cc2c1C [Compound I-1657],9 nM
8,CCOc1ccc(/N=c2\[nH]c(=O)n(C[C@H]3COC(C)(C)O3)c(=O)n2Cc2ccc(Cl)cc2)cc1Cl [Compound I-1887],3 nM
9,Cc1ccc(Cn2c(=O)n(C[C@H](C)C(=O)O)c(=O)[nH]/c2=N\c2ccc(OC(C)C)c(C#N)c2)cc1 [Compound I-0961],74 nM
10,Cc1cc(/N=c2\[nH]c(=O)n(CC3COC(C)(C)OC3)c(=O)n2Cc2ccc(Cl)cc2)ccc1OC(C)C [Compound I-1899],4 nM
11,CCc1oc2ccc(/N=c3\[nH]c(=O)n(CC4(C(=O)O)CC4)c(=O)n3Cc3ccc(C)cc3)cc2c1C [Compound I-1555],16 nM
12,CCCCOc1ccc(/N=c2\[nH]c(=O)n(CC3(C(=O)OCC)CC3)c(=O)n2Cc2ccc(Cl)cc2)cc1 [Compound I-1005],31 nM
13,Cc1cc(/N=c2\[nH]c(=O)n(CC3CNC3)c(=O)n2Cc2ccc(Cl)cc2)ccc1OC(C)C [Compound I-1654],66 nM
14,COc1ccc(Oc2ccc(/N=c3\[nH]c(=O)n(CCCO)c(=O)n3Cc3ccc(Cl)cc3)cc2)cn1 [Compound I-1733],3 nM

# Same assay, conditions: human P2X3 receptor, Test Example 1
row,Compound,IC50
1,Cc1nsc(Oc2ccc(/N=c3\[nH]c(=O)n(CC(N)=O)c(=O)n3Cc3ccc(Cl)cc3)cc2)n1 [Compound I-2589],6 nM
2,COC(=O)[C@@H](C)Cn1c(=O)[nH]/c(=N\c2ccc(Oc3ccc(OC)nc3)cc2)n(Cc2ccc(C)cc2)c1=O [Compound I-1522],5 nM
3,O=C(O)c1cc(Oc2ccc(/N=c3\[nH]c(=O)n(C4CCC4)c(=O)n3Cc3ccc(Cl)cc3)cc2)ccn1 [Compound I-2484],8 nM
4,CCn1c(=O)[nH]/c(=N\c2ccc(Oc3cccc(C#N)n3)cc2)n(C[C@H]2CC[C@H](C)CC2)c1=O [Compound I-2494],1 nM
5,CCn1c(=O)[nH]/c(=N\c2ccc3nc(O)sc3c2)n(Cc2ccc(Cl)cc2)c1=O [Compound I-2325],47 nM
6,CCOC(=O)CCn1c(=O)[nH]/c(=N\c2ccc3nc(CC)sc3c2)n(Cc2ccc(C)cc2)c1=O [Compound I-1506],2 nM
7,O=c1[nH]/c(=N\c2ccc(Oc3ccon3)c(F)c2)n(Cc2ccc(Cl)cc2)c(=O)n1C(CO)CO [Compound I-2529],73 nM
8,CCCOc1ccc(/N=c2\[nH]c(=O)n(C[C@H](C)C(=O)OC)c(=O)n2Cc2ccc(C)cc2)cc1Cl [Compound I-0839],12 nM
9,CCn1c(=O)[nH]/c(=N\c2ccc(Oc3ccnc(NCC(=O)NC)c3)cc2)n(Cc2ccc(Cl)cc2)c1=O [Compound I-2555],16 nM
10,CNC(=O)Nc1cc(Oc2ccc(/N=c3\[nH]c(=O)n(C)c(=O)n3Cc3ccc(Cl)cc3)cc2)ccn1 [Compound I-2656],6 nM
11,CCOC(=O)CCn1c(=O)[nH]/c(=N\c2ccc(Oc3ncccn3)cc2)n(Cc2ccc(Cl)cc2)c1=O [Compound I-2550],4 nM
12,Cc1cnc(Oc2ccc(/N=c3\[nH]c(=O)n(CC(=O)NCCO)c(=O)n3Cc3ccc(Cl)cc3)cc2)s1 [Compound I-2649],6 nM
13,O=c1[nH]/c(=N\c2ccc(Oc3noc(C4CC4)n3)cc2)n(Cc2ccc(Cl)cc2)c(=O)n1C[C@H](O)CO [Compound I-2596],51 nM
14,NC(=O)Cn1c(=O)[nH]/c(=N\c2ccc(Oc3cccc(F)n3)cc2)n(Cc2ccc(Cl)cc2)c1=O [Compound I-2584],8 nM
15,O=C(O)Cn1c(=O)[nH]/c(=N\c2ccc(Oc3ccon3)c(F)c2)n(Cc2ccc(Cl)cc2)c1=O [Compound I-2580],204 nM
16,COC(=O)c1cccc(Oc2ccc(/N=c3\[nH]c(=O)n(C)c(=O)n3Cc3ccc(Cl)cc3)cc2)n1 [Compound I-2271],36 nM
17,CCn1c(=O)[nH]/c(=N\c2ccc(Oc3cccc(C(N)=O)n3)cc2)n(C[C@H]2CC[C@H](C)CC2)c1=O [Compound I-2497],1 nM
